Legend:
[1] = refractive index (Na D-line) (dimensionless); conditions: 101.33 kPa, Liquid, Standard Abbe refractometry
[2] = 100.8 kPa, Liquid
[3] = xn = mol fraction of the nth substance listed; conditions: 100.8 kPa, Liquid
[4] = refractive index (Na D-line) (dimensionless); xn = mol fraction of the nth substance listed; conditions: 100.8 kPa, Liquid, Standard Abbe refractometry

CC1CCCCC1 [methylcyclohexane]
Conditions	mass density, 288.15 K [kg/m3]	mass density, 298.15 K [kg/m3]	mass density, 308.15 K [kg/m3]	refractive index, 288.15 K	refractive index, 298.15 K	refractive index, 308.15 K	viscosity, 288.15 K [mPa·s]	viscosity, 298.15 K [mPa·s]	viscosity, 308.15 K [mPa·s]
[1]	–	–	–	1.42578	1.42053	1.41537	–	–	–
[2]	773.4	765	756.3	–	–	–	0.784	0.685	0.6

CCO [ethanol] + CC1CCCCC1
x1 = 1
Conditions	mass density, 288.15 K [kg/m3]	mass density, 298.15 K [kg/m3]	mass density, 308.15 K [kg/m3]	refractive index, 288.15 K	refractive index, 298.15 K	refractive index, 308.15 K	viscosity, 288.15 K [mPa·s]	viscosity, 298.15 K [mPa·s]	viscosity, 308.15 K [mPa·s]
[3]	793.6	785.2	776.5	–	–	–	1.31	1.085	0.906
[4]	–	–	–	1.36351	1.35935	1.35504	–	–	–

CCO [ethanol] + CC(C)OC(C)C
x2 = 0
Conditions	mass density, 288.15 K [kg/m3]	mass density, 298.15 K [kg/m3]	mass density, 308.15 K [kg/m3]	refractive index, 288.15 K	refractive index, 298.15 K	refractive index, 308.15 K	viscosity, 288.15 K [mPa·s]	viscosity, 298.15 K [mPa·s]	viscosity, 308.15 K [mPa·s]
[3]	793.6	785.2	776.5	–	–	–	1.31	1.085	0.906
[4]	–	–	–	1.36351	1.35935	1.35504	–	–	–

CC(C)OC(C)C [diisopropyl ether] + CC1CCCCC1
[3], Capillary tube (Ostwald / Ubbelohde) method, x1 = 1
Conditions	viscosity [mPa·s]
288.15 K	0.347
298.15 K	0.313
308.15 K	0.283

x1 = 1
Conditions	mass density, 288.15 K [kg/m3]	mass density, 298.15 K [kg/m3]	mass density, 308.15 K [kg/m3]	refractive index, 288.15 K	refractive index, 298.15 K	refractive index, 308.15 K
[3]	729	718.6	707.9	–	–	–
[4]	–	–	–	1.37126	1.36537	1.35954

CC(C)OC(C)C [diisopropyl ether]
Conditions	mass density, 288.15 K [kg/m3]	mass density, 298.15 K [kg/m3]	mass density, 308.15 K [kg/m3]	refractive index, 288.15 K	refractive index, 298.15 K	refractive index, 308.15 K	viscosity, 288.15 K [mPa·s]	viscosity, 298.15 K [mPa·s]	viscosity, 308.15 K [mPa·s]
[1]	–	–	–	1.37126	1.36537	1.35954	–	–	–
[2]	729	718.6	707.9	–	–	–	0.347	0.313	0.283

CCO [ethanol]
Conditions	mass density, 288.15 K [kg/m3]	mass density, 298.15 K [kg/m3]	mass density, 308.15 K [kg/m3]	refractive index, 288.15 K	refractive index, 298.15 K	refractive index, 308.15 K	viscosity, 288.15 K [mPa·s]	viscosity, 298.15 K [mPa·s]	viscosity, 308.15 K [mPa·s]
[1]	–	–	–	1.36351	1.35935	1.35504	–	–	–
[2]	793.6	785.2	776.5	–	–	–	1.31	1.085	0.906

— the NIST ThermoML archive (doi:10.1021/je050031f)
